The values that follow come from patent publication US8455523B2, “Compositions and methods for treating hyperlipidemias” (The Research Foundation of State University of New York, priority 2010, dated 2013).

Data set [1] has as its target MTP (Homo sapiens, UniProt P55157). Conditions: cited from earlier work.
The conditions of data set [2]: in vivo; cited from earlier work.
For data set [3], the target named is T1, MTP (Mus musculus, UniProt O08601).
T1 construct: small pieces (0.1 g) of liver and ˜1-cm segments of proximal small intestine were homogenized; from tissue; host or cells: mouse liver (C57BL/6J; Reversa mice in some experiments); supernatant of ultracentrifuged homogenate
T1 sequence (O08601 22-894): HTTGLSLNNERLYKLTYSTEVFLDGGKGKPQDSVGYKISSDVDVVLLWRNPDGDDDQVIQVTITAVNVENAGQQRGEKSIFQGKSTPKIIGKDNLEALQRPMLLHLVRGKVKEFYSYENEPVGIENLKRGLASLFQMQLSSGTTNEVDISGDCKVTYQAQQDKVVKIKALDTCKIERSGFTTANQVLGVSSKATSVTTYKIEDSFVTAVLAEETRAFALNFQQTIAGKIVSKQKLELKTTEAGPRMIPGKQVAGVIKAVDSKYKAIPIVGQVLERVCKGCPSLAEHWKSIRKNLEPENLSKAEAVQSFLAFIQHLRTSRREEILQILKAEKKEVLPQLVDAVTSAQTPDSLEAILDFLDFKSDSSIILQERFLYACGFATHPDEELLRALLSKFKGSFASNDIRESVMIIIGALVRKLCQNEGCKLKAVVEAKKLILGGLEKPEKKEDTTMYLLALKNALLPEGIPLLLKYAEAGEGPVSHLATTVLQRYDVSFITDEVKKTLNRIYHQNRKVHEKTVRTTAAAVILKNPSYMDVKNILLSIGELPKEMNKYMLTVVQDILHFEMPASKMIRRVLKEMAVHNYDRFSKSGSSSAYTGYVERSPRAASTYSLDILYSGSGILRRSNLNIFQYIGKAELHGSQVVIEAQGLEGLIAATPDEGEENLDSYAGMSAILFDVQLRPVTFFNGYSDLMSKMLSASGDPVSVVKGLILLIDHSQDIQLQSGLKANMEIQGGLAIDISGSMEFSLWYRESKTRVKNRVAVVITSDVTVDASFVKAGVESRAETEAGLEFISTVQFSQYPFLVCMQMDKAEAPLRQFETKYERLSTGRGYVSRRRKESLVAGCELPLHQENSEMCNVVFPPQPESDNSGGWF
T1 sequence (P09103 21-509 partner limits assumed): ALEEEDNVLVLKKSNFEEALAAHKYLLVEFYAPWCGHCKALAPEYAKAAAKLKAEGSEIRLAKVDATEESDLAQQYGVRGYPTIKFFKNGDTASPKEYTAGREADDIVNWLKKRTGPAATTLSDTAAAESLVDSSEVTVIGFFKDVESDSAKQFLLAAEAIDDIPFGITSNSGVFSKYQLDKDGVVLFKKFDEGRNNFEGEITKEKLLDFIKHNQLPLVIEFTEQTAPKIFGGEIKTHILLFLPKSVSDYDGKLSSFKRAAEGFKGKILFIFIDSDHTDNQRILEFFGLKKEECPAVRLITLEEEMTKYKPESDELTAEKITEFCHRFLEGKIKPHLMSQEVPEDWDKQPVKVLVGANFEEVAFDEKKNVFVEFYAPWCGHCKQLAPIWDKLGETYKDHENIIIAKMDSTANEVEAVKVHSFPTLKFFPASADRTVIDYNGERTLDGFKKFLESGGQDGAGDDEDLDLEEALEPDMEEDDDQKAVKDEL
Description: Determination of MTP activity in tissues (liver homogenates of treated mice). The format is in vivo. The following applies: chow fed C57/BL6J, IP tunicamycin, 4-24 hours. The protocol: After extensive washes with ice-cold PBS, small pieces (0.1 g) of liver and ˜1-cm segments of proximal small intestine were homogenized with 1 ml of ice-cold 1 mM Tris-HCl, pH 7.6, 1 mM EGTA, and 1 mM MgCl2 buffer in a glass homogenizer. The homogenates were centrifuged (SW55 Ti rotor, 50,000 rpm, 10° C., 1 h), and supernatants were used for MTP assay as described before (41; 42) using a kit (Chylos, Inc.).

The test system of another data set is C57Bl/6J mice. Description: ER stress induction by tunicamycin in mice: plasma AST/ALT and lipids. The format is in vivo. The protocol: FIG. 10. Effect of tunicamycin on plasma ALT/AST levels. W iid type mice were injected intraperitoneally with 1 mg/kg tunicamycin. Plasma were collected after 48 h and used to measure enzyme activities.
FIG. 17. Age matched wildtype C57/BL6J animals chow fed animals were injected via IP with either PBS or Tunicamycin. Animals were sacrificed at 4, 8, 12 and 24 hours. Plasma and livers were collected and mRNA extracted from liver samples.
To determine whether ER stress itself would increase plasma AST/ALT, C57Bl/6J mice were injected with tunicamycin (1 mg/kg) as described before. Plasma AST/ALT levels were measured after 36 h (FIG. 10). […] We will be measuring cellular lipid to determine whether tunicamycin affects hepatic lipid levels as well as mRNA and protein levels of different candidate genes involved in ER stress pathway.
(§1) C57BL/6J Black 6 mice (stock number 000664) were obtained from Jackson Laboratory and used for chow fed and western diet fed experiments. MTP inhibitor (BMS […]) (1 mg/kg/day), Lovastatin, Pioglitazone (Toronto Research Chemicals P471000) (25 mg/kg/day) and 4-phenylbutyric acid (Calbiochem 820986) (1 g/kg/day) were administered by oral gavage. Chow fed animals were treated for one week with either DMSO or MTP inhibitor. Western diet fed animals were fed DMSO, MTP inhibitor, Pioglitazone, MTP inhibitor+Pioglitazone, Lovastatin, MTP inhibitor+Lovastatin, 4-phenylbutyric acid, and MTP inhibitor+4-phenylbutyric acid. Chow fed animals were also injected with either PBS or Tunicamycin and animals were sacrificed at 4, 8, 12 and 24 hours.

The subject of data set [4] is hepatic mRNA of ER stress, inflammation and lipid metabolism genes. Description: Hepatic mRNA quantification (qPCR, XBP-1 splicing) in treated mice. The class given is in vivo. The following applies: liver. An excerpt: FIGS. 6a and 6b. Liver samples from FIG. 16 were used to isolate total mRNA and to quantify expression of different candidate genes. Statistical analyses were as described in FIGS. 16-17.
FIGS. 9a and 9b. C57B/6J mice were fed a western diet for 8 weeks and then treated with MTP inhibitor and other indicated compounds for 8 days as described in FIG. 16. Liver samples were used to isolate mRNA and to quantify mRNA levels with different candidate genes. Stars on MTPi group represent comparison with the control group.
FIG. 16. Age matched wildtype C57/BL6J animals chow fed animals were treated with DMSO (control) or MTP inhibitor (MTPi) for one week. Age matched wildtype C57/BL6J were fed WD for one month and were administered MTPi, Lovastatin, (Lova), Pioglitazone (Pio) or 4-phenylbutyric acid (PBA) every day for one week. All drugs were administered by oral gavage. Animals were sacrificed on day 7 and livers were harvested. mRNA was extracted and subjected to qPCR analysis. * represent comparison DMSO control; # represent comparisons to WD control; @ represent comparisons to WD MTP inhibitor treated animals.
mRNA quantifications and primers used: Total RNA from tissues and cells were isolated using TriZol™ (Invitrogen). The purity and integrity of RNA were assessed by the A260/A280 ratio and 1% agarose gel electrophoresis, respectively. Only the RNAs with ratios more than 1.7 were used for cDNA synthesis. The first strand cDNA was synthesized using Omniscript RT (Qiagen) kit. Briefly, 2 μg of total RNA, 1 μM random primers (Invitrogen), 0.5 mM dNTP solution, and 0.5 U/μl Omniscript Reverse Transcriptase were incubated at 37° C. for 1 h in 20 μl of RT buffer and the reaction was terminated by incubating at 95° C. for 5 minutes. Each reaction of quantitative RT-PCR was carried out in a volume of 20 μl consisting of 5 μl cDNA sample (1:100 dilution of the first strand cDNA sample) and 15 μl of PCR master mix solution containing 1×PCR reaction buffer, 6 mM MgCl2, 200 nM primer pair, 0.025 U/μl HotStar Gold™ DNA polymerase, 200 μM dNTP solution, and 0.3 μl SYBR Green I solution (gPCR™ Core Kit for SYBR Green I, Eurogentec). The PCR was carried out by incubating the reaction mixture first for 10 minute at 95° C. followed by 40 cycles of 15 sec incubations at 95° C. and 1 min at 60° C. in the ABI 7000 SDS PCR machine. The data were analyzed using ΔΔCT method according to manufacturer's instruction and presented as arbitrary units. The primers used in this study were designed with the PrimerExpress 3.0 software (Applied Biosystems, CA) and are presented as Table 1.

The test system of data set [5] is C57Bl/6J mice fed either a chow or western diet. As to the kind of experiment: MTP inhibitor BMS-212122-01 with or without lovastatin, pioglitazone or PBA in chow or western diet fed C57Bl/6J mice. The format is in vivo. Conditions: WD one month. How it is done:
FIG. 13. Age matched wildtype C57/Bl6J animals chow fed animals were treated with DMSO (control) or MTP inhibitor (MTPi) for one week. […] All drugs were administered by oral gavage. Animals were sacrificed on day 7 and plasma and livers were harvested and analyzed. * represent comparison to DMSO control; # represent comparisons to WD control; @ represent comparisons to WD MTP inhibitor treatment.
FIG. 18. Age matched wildtype C57/BL6J were fed WD for one month and were administered MTPi, or 4-phenylbutyric acid (PBA) everyday for one week. All drugs were administered by oral gavage. Animals were sacrificed on day 7 and livers were harvested. * represent comparison DMSO control; # represent comparisons to HF MTP inhibitor treated animals.
as §1
All animals were kept in 07:00-19:00 h lighting schedule. […] Food was withdrawn 16 h before the sacrifice of the mice. On the day of the experiment, mice were anesthetized and blood was collected from the heart. Liver was collected, washed in ice-cold PBS, cut into small pieces and used for lipid extraction, histological staining, to measure different protein activities/quantities and for mRNA analysis. Lipids were extracted from the tissue homogenates following the Bligh and Dyer method. Triglyceride (Infinity TM Triglyceride, TR22421) and total cholesterol (Infinity TM Cholesterol, TR13421) levels in the tissues were determined using commercial kits (Thermo Scientific). Free cholesterol and free fatty acid levels were measured using kits from Wako Chemicals (Germany). Esterified cholesterol was calculated by subtracting the free cholesterol from the total cholesterol.
We next studied the effects of chemical inhibition of MTP in C57Bl/6J mice fed either a chow or western diet (WD) for 5 weeks. Chow fed animals were orally gavaged with either DMSO or MTP inhibitor BMS-212122-01 (MTPi; 1 mg/kg/day) for one week. WD fed animals were treated with DMSO, MTP inhibitor with or without lovastatin (50 mg/kg/day) or pioglitazone (25 mg/kg/day) daily by oral gavage for one week.

The subject of another data set is guinea pigs. Conditions: cited from earlier work.
The mark [6] stands for this setting: chow fed C57/BL6J, IP, 4-24 hours.

MTP (Homo sapiens, UniProt P55157), sequence (P55157 19-894, species assumed): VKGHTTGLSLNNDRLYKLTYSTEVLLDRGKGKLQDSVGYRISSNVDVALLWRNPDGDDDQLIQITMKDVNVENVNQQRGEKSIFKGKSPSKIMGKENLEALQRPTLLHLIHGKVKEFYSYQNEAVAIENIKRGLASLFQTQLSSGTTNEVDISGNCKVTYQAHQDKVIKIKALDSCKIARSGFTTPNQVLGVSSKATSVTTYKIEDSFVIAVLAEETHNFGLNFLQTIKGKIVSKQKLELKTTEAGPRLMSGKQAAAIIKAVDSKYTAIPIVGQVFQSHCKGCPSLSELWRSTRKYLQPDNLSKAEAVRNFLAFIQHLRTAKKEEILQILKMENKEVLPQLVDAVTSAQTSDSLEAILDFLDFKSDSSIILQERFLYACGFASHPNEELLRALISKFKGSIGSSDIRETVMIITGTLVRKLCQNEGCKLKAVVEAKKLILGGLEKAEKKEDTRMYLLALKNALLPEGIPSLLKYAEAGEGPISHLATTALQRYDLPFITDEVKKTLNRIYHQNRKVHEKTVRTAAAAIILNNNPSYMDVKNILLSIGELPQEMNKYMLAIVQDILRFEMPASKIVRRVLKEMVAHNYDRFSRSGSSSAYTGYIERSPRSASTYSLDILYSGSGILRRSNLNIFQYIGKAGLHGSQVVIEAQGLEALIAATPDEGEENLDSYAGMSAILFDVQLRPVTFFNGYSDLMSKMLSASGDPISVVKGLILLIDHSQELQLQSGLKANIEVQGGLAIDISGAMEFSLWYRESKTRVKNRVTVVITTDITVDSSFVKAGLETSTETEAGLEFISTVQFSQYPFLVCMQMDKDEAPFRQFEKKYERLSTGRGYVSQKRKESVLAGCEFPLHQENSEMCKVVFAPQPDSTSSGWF
MTP (Homo sapiens, UniProt P55157), sequence (P07237 18-508 partner, species assumed): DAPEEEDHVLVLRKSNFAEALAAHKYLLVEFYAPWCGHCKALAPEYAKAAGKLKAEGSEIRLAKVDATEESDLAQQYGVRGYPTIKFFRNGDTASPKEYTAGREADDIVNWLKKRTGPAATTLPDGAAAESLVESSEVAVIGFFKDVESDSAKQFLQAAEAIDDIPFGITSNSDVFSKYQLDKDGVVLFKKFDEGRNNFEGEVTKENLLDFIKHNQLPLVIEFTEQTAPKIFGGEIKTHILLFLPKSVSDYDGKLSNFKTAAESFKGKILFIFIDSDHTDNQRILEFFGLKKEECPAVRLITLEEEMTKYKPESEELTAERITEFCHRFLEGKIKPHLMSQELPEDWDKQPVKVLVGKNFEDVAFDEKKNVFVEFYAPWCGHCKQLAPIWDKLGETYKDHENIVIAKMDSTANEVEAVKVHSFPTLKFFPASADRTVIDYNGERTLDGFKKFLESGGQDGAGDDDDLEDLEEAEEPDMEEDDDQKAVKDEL

For the compound `O=C1c2c(O)cc(O)cc2OC(c2ccc(O)c(O)c2)C1O` (stereo not shown) [Taxifolin], on MTP [1], the cellular lipids result is listed as “without increasing”; the “triglyceride synthesis and MTP activity” value is “inhibits”.

As to `COc1cccc(C(=O)Nc2ccc3c(c2)CCN(C(=O)Oc2ccccc2)C3)c1-c1ccc(C(F)(F)F)cc1` [SLx-4090], the plasma lipids result in data set [2] is “lower”.

Consider tunicamycin, for which, at MTP [3], the “hepatic MTP activity” value is “no effect”. For the same compound, in the data set with C57Bl/6J mice (1 mg/kg injected, measured after 36 h), the “Plasma AST/ALT levels” value is “significantly enhanced”. For the same compound, in the data set with C57Bl/6J mice (24 hours after injection), the “plasma AST/ALT vs PBS injected animals” value is “still significantly elevated”. In the data set on C57Bl/6J mice (acute induction of ER stress), the “increase of plasma AST/ALT” value was determined as 2.5 fold. For the same compound, in the data set on C57Bl/6J mice (chow fed C57/BL6J, IP), the “time of peak plasma AST/ALT levels after injection” value came to 8 h. Further, in the data set with C57Bl/6J mice (setting [6]), the hepatic lipids entry is reported as “increased”; the “plasma cholesterol and triglycerides” value is “lowered”. Also, the plasma transaminases result in the data set on C57Bl/6J mice (chow fed C57/BL6J, IP, vs PBS) was “higher”. For the same compound, the XBP-1 splicing assay result in data set [4] (tunicamycin IP) is reported as “revealed the spliced form of XBP-1”. The “mRNA expression of ER stress markers Bip, Ire1α and CHOP” value in data set [4] (tunicamycin IP time course) is reported as “elevations”.

As for `O=C(O)CCCc1ccccc1` [PBA, 4-phenylbutyric acid], the “hepatic triglycerides and free cholesterol (hepatic lipids)” value in data set [5] (MTPi ± PBA one week) was “did not reduce”. In addition, the “MTP activity, hepatic and plasma lipids” value in data set [5] (PBA 1 g/kg/day alone or co-administered with MTP inhibitor, one week) is “no effect”. Moreover, the “rises in plasma AST/ALT after MTP inhibition” value in data set [5] (PBA 1 g/kg/day with MTP inhibitor, one week) is listed as “spared increases”. For the same compound, the “mRNA levels of ER stress markers vs MTPi treated animals” value in data set [4] (PBA with MTPi) is “significantly lower”.

As to `CCOC(=O)C(COC(=O)Cc1ccc(NC(=O)c2ccccc2-c2ccc(C(F)(F)F)cc2)c(C(=O)N(C)C)c1)(C(=O)OCC)c1ccccc1` [JTT-130], in the data set on guinea pigs, the hepatic triglyceride result is on record as “without increasing”; the “plasma triglyceride and LDL cholesterol” value is “lower”.
